Experimental data reported in US20240002846A1, “COMPOSITIONS AND METHODS FOR THE DIAGNOSIS AND TREATMENT OF ITCH” (Duke University, priority 2020, published 2024).
“Also recorded” adds a separate entry of the source.

Key:
Type in all cases: cell-based
human keratinocytes = assay: Ca2+ imaging in cultured human keratinocytes; settings: inhibitor 10 μM
Protocol: (§1) In brief, surgically discarded foreskin samples, obtained from Duke Children's Hospital in accordance to institutionally approved IRB protocol, were incubated with Dispase (Gibco, Gaithersburg, MD, 4 U/mL) for 12-16 h at 4° C. followed by 0.05% trypsin (Gibco, Gaithersburg, MD) for 10-20 min at 37° C. Cells were maintained in keratinocyte serum-free media (Invitrogen, Waltham, MA) with 5% CO2 at 37° C. and used at passage 2-3.
In vitro and ex vivo Ca^2+ imaging. […] Ca^2+ imaging of cultured cells in response to chemicals was conducted after loading with 5 μM Fura2-AM (Invitrogen, Waltham, MA) for 45 min after a ratiometric Ca^2+-imaging protocol with 340/380-nm blue light for dual excitation. Ratios of emissions were acquired at 0.5 Hz. ΔR/R0 was determined as the fraction of the increase of a given ratio over baseline ratio divided by baseline ratio. […] Control cells received vehicles.

pERK expression [1] = assay: pERK Western blot in cultured human keratinocytes; settings: inhibitor 10 μM
Protocol: as §1, with “Primary human keratinocytes were cultured as previously described (Chen et al. J. Biol. Chem. 2016, 291, 10252-10262). In brief,” for “In brief,”
Western Blot. Routine procedures were followed (Chen et al. J. Biol. Chem. 2016, 291, 10252-10262, Chen et al. Pain 2014, 155, 2662-2672). Briefly, cultured keratinocytes and dissected dorsal neck skin (0.5×0.5 cm, the area that received the treatment) were protein-extracted in radioimmunoprecipitation assay (RIPA, Sigma, St. Louis, MO) buffer and electroblotted to polyvinylidene fluoride (PVDF) membranes after gel separation of proteins in a 4-15% polyacrylamide gel (Bio-Rad, Hercules, CA). […] Immunoblot band intensity was quantitated using the software Image J and ERK served as a control for pERK expression.

pERK expression [2] = assay: pERK Western blot in cultured mouse keratinocytes; settings: inhibitor 10 μM
Protocol: Primary mouse keratinocytes were cultured following previous protocol (Chen et al. J. Biol. Chem. 2016, 291, 10252-10262). The epidermis from the back skin of newborn WT or keratinocyte-Trpv4 cKO mice was separated from the dermis by floating the skin on 0.25% trypsin (Gibco, Gaithersburg, MD) for 14-18 h at 4° C. Basal keratinocytes were separated from the cornified sheets by filtration through a […] cell strainer. Keratinocytes were plated on collagen I-coated dishes or glass coverslips and grown in EME media (Gibco, Gaithersburg, MD) containing 8% chelex (Bio-rad, Hercules, CA)-treated FBS with the final Ca^2+ adjusted to 0.05 mM, bovine pituitary extract (50 μg/mL), epidermal growth factor (5 ng/mL), and lx antibiotics/antimycotics (Gibco, Gaithersburg, MD) in a humidified incubator with 5% CO2 at 37° C. for 5-7 days until use. To knockdown Trpv4 in isolated keratinocytes from newborn keratinocyte-Trpv4 cKO mice, cells were treated with 4-OH tamoxifen at 500 nM for 72 h.
Western Blot. Routine procedures were followed (Chen et al. J. Biol. Chem. 2016, 291, 10252-10262, Chen et al. Pain 2014, 155, 2662-2672). […] Immunoblot band intensity was quantitated using the software Image J and ERK served as a control for pERK expression.

[3] = tested on: vesicular release from mKC; assay: Vesicular release from cultured mouse keratinocytes (AChE activity); settings: 10 μM
Protocol: Vesicular release from cultured keratinocytes was quantified by detecting acetylcholinesterase (AChE) activity in the extracellular release fluid. (Gupta et al. Am. J. Physiol. Heart Circ. Physiol. 2007, 292, H3052-3056; Malik et al. Methods Mol. Biol. 2016, 1448, 237-248). CBQCA Protein Quantitation Kit (Molecular Probes, Eugene, OR) was used to assess the total protein amounts of each sample. Quantitation was carried out according to kit instructions (Fluorocet, Systems Biosciences, Palo Alto, CA). Briefly, vesicles were lysed to release esterase enzyme whose activity is measured using a florescence dye, excitation at 544 nm and emission at 590 nm. Fluostar Optima (BMG Labtech, Cary, NC) microplate reader was used to measure esterase activity. 500 ng protein equivalent of input was used per well. To determine the contribution of Rab5a and Rab27a to LPC-induced miR-146a release, cells were pre-treated with the Rab5a (5′-GUAGAAUCAA GUUUCUAAUUCUGAA-3′ SEQ ID NO: 9, 5′-[…]-3′ SEQ ID NO: 10) or Rab27a (5′-AGCUAAAA CUGAGAGCUUCAAACAG-3′ SEQ ID NO: 11, 5′-[…]-3′ SEQ ID NO: 12) siRNA (IDT, Coralville, IA) for 72 h before stimulation. Control cells were treated with scramble siRNA.

| SMILES | effect on LPA 18:1 (10 μM) induced Ca2+ signal (human keratinocytes) | effect on LPC (10 μM) induced Ca2+ signal (human keratinocytes) | effect on LPC-increased pERK expression (pERK expression [1]) | effect on LPC-increased pERK expression (pERK expression [2]) | effect of U0126 on LPC-induced vesicular release [3] |
| --- | --- | --- | --- | --- | --- |
| Cc1c(C(=O)Nc2cccc(C(F)(F)F)c2)cc(-c2ccccc2)n1CCCN1CCOCC1 [HC067047] | remained unchanged | significantly reduced | eliminated the increase; also recorded: abolished | eliminated the increase; also recorded: abolished |  |
| N#CC(=C(/N)Sc1ccccc1N)/C(C#N)=C(\N)Sc1ccccc1N [U0126] |  |  |  |  | completely eliminated |
